Experimental data from the SangsterLogP compilation.

Experiments:
[1] = method code SF-HPLC, from DOI: 10.1023/a:1015823315983, PMID: 1475237; conditions: pH 1.0
[2] = method code SF-AS, from DOI: 10.1248/cpb.42.1084, PMID: 8069960
[3] = method code SF-AS, from DOI: 10.1081/jlc-100101656
[4] = method code SF-RC, from DOI: 10.1021/jm000079i, PMID: 10956218; conditions: pH 7.4
[5] = pH 7.4
[6] = from Comini, L.; Núñez Montoya, S.; Argüello, G.; Cabrera, J. (2006). Partition coefficient (log P) determination of anthraquinone derivatives isolated from Heterophyllaea pustulata Hook, f. (Rubiaceae). …; conditions: pH 7.4
[7] = method code SF-RC, from DOI: 10.1016/s0969-8051(03)00050-7, PMID: 12900283; conditions: pH 7.4
[8] = method code SF, from Rodriguez, L.; Zecchi, V.; Tartarini, A. (1984). Partition rate of some nonsteroidal anti-inflammatory agents in a three-phase water/n-octanol/water system. Pharmaceutical Acta Helvetiae, 59(3)95-96.; conditions: pH 12.0
[9] = method code SF-HPLC, from DOI: 10.1016/j.bmcl.2010.02.057, PMID: 20231095; conditions: pH 7.4
[10] = method code SF, from DOI: 10.1016/0378-5173(85)90102-4; conditions: pH 8.0
[11] = method code SF-AS, from PMID: 6540096; conditions: pH 7.5
[12] = method code SF-AS, from Falk, M.; Luecke, L. (1989). Transport of substances through lipid membranes. 11. Effect of esterification on the dissociation and permeation of orotic acid. Pharmazie, 44(9)647.; conditions: pH 1.2
[13] = method code SF-HPLC, from DOI: 10.1021/js970291i, PMID: 9523983; conditions: pH 7.4
[14] = not given; remark: listed apart in the source
[15] = not given; remark: listed apart in the source
[16] = method code RP-HPLC, from DOI: 10.1016/0043-1354(79)90252-5; conditions: pH 7.0
[17] = method code SF-RC, from DOI: 10.1016/j.nucmedbio.2015.07.007, PMID: 26330158; conditions: pH 7.4
[18] = not given; remark: listed apart in the source
[19] = method code SF-GLC, from DOI: 10.1016/0048-3575(86)90042-8
[20] = not given; remark: listed apart in the source
[21] = method code SF-RC, from DOI: 10.1016/j.nucmedbio.2011.12.002, PMID: 22321533
[22] = not given; remark: listed apart in the source
[23] = method code SF-AS, from DOI: 10.1081/jlc-100104900; conditions: pH 1.0
[24] = not given; remark: listed apart in the source
[25] = method code SF-RC, from DOI: 10.1016/0969-8051(94)00090-7, PMID: 7767321; conditions: pH 7.4
[26] = not given; remark: listed apart in the source
[27] = not given; remark: listed apart in the source
[28] = method code SF, from DOI: 10.1584/jpestics.8.69
[29] = method code SF, from Li, Y.; Sun, S.; Zheng, Y. (2012). Determination of partition coefficients of icariside-II and icaritin based on the HPLC retention time. Chinese Pharmaceutical Journal, 47, 122-126.
[30] = not given; remark: listed apart in the source
[31] = method code SF-RC, from DOI: 10.1016/s0969-8051(01)00264-5, PMID: 11711307; conditions: pH 7.4
[32] = not given; remark: listed apart in the source
[33] = method code SF-HPLC, from DOI: 10.1016/j.ejps.2013.04.020, PMID: 23624327
[34] = method code SF-AS, from DOI: 10.1248/cpb.41.171; conditions: pH 7.0
[35] = method code SF-AS, from DOI: 10.1021/jm010817i, PMID: 11806714; conditions: pH 7.4
[36] = method code SF-HPLC, from DOI: 10.1897/08-203.1, PMID: 18702564
[37] = method code SF-RC, from DOI: 10.1016/s0969-8051(03)00049-0, PMID: 12900282; conditions: pH 7.4
[38] = method code SF, from You, R.; Wang, L.; Cong, L.; Wang, Q.; Cai, P.; Yuan, H. (2007). Physicochemical properties of oxymatrine-phospholipid complex. Pharmaceutical Journal of Chinese People's Liberation Army, …; conditions: pH 7.5
[39] = method code SF-AS, from THAKUR, B.; Mehta, U.; TIPNIS, P. (1981). Ortho effect in partition coefficients of some o-benzyloxybenzamides. Indian J Pharm Sci, 43(6)224-226.
[40] = method code SF-HPLC, from DOI: 10.1016/j.ejpb.2006.11.002, PMID: 17182232; conditions: pH 7.4
[41] = pH 13.0
[42] = method code SF-HPLC, from DOI: 10.1021/jm100498u, PMID: 20704351; conditions: pH 7.4
[43] = method code SF-HPLC, from DOI: 10.1002/jps.2600830120, PMID: 8138917; conditions: pH 7.4
[44] = not given; remark: listed apart in the source

Q: For `C[C@H](CS)C(=O)N1C[C@@H](Sc2ccccc2)C[C@H]1C(=O)O` (relative stereo), which logD [1] is on record?
A: Its logD is 2.16.

Q: For `COc1ccc(Nc2ccnc3cc(Cl)ccc23)cc1`, which logP [2] is on record?
A: The logP was 4.94.

Q: Which logP [3] does the source give for `CCc1onc(C)c1NC1=CC(=O)C(=O)c2ccccc21` here?
A: Its logP is 2.14.

Q: With `CN(C)c1ccccc1Sc1ccc(C#N)cc1N` as the molecule, how does the logD [4] read?
A: Its logD is 2.71.

Q: Which logD [5] does the source give for `O=C(Nc1ccnc(NC(=O)C2CC2)c1)c1c(Cl)cccc1Cl` here?
A: Its logD is 3.4.

Q: For `COc1c(CO)c(O)cc2c1C(=O)c1ccccc1C2=O`, which logD [6] is on record?
A: The logD was 1.29.

Q: With `CN(C)c1ccc2c(c1)Cc1cc(I)ccc1-2` as the molecule, how does the logD [7] read?
A: Its logD is 2.47.

Q: Which logD [8] does the source give for `CCc1c(OC)cc(Cc2cnc(N)nc2N)cc1OC` here?
A: Its logD is 2.72.

Q: For `CCCC(=O)OC(C)OC(=O)c1sc2cc(O)c(O)cc2c1Cl` (stereo not given), which logD [9] is on record?
A: Its logD is 2.16.

Q: With `NC(Cc1ccccc1)C(=O)OCn1ncc2c(=O)[nH]cnc21` (racemic) as the molecule, how does the logD [10] read?
A: The logD was 0.4.

Q: Which logD [11] does the source give for `CCc1cc2c(s1)N(C)C(=O)CN=C2c1ccccc1Cl` here?
A: Its logD is 3.35.

Q: Which logD [12] does the source give for `CCCCCCCCCCOC(=O)c1cc(=O)[nH]c(=O)[nH]1` here?
A: The logD was 2.85.

Q: For `CN(C)Cc1cc(I)ccc1Sc1ccc(Cl)cc1N`, which logP is on record?
A: The logP was 3.31.

Q: Which logD [13] does the source give for `Cc1ccnc2c1NC(=O)c1cccnc1N2C1CC1` here?
A: The logD was 1.81.

Q: For `COCCOc1ccccc1S(=O)(=O)NC(=O)Nc1nc(OC)nc(OC)n1`, which logP [14] is on record?
A: Its logP is 1.71.

Q: For `Nc1cc2c3c(cccc3c1)-c1ccccc1-2`, which logP [15] is on record?
A: The logP was 3.14.

Q: Which logD [16] does the source give for `COc1ccc(C(c2ccc(OC)cc2)C(Cl)(Cl)Cl)cc1` here?
A: Its logD is 3.82.

Q: For `O=C1Nc2c(Cl)ccc(OCCF)c2C2(CCCCC2)N1`, which logD [17] is on record?
A: Its logD is 2.9.

Q: Which logP [18] does the source give for `O=C(O)CCC(=O)c1ccc(-c2ccccc2)cc1` here?
A: The logP was 2.91.

Q: For `ClC1(Cl)CC1(c1ccccc1)c1ccccc1`, which logP [19] is on record?
A: The logP was 4.88.

Q: Which logP [20] does the source give for `O=C1NC(=O)C2(CCCCCCCCCCC2)C(=O)N1` here?
A: The logP was 3.51.

Q: With `Cc1cn(C2CC(O)C(CO)S2)c(=O)n(Cc2cn(CCF)nn2)c1=O` (stereo not given) as the molecule, how does the logP [21] read?
A: The logP was -0.86.

Q: With `COc1ccc2cc(CCC(C)=O)ccc2c1` as the molecule, how does the logP [22] read?
A: Its logP is 3.45.

Q: For `CC(C(=O)O)c1cccc(Oc2ccccc2)c1` (stereo not given), which logD [23] is on record?
A: Its logD is 3.45.

Q: For `Cc1cc2cc[nH]c2c(C(=O)Nc2ncccc2C)n1`, which logP [24] is on record?
A: The logP was 5.3.

Q: For `CC(C)(C(=O)c1ccccc1I)c1cccnc1`, which logD [25] is on record?
A: Its logD is 2.19.

Q: For `c1cc(-c2cnc3c(-c4ccncc4)cnn3c2)ccn1`, which logP [26] is on record?
A: The logP was 2.5.

Q: With `O=CC1=CC=C2C(C(=O)O)CCN2c2cc(Br)ccc21` (stereo not given) as the molecule, how does the logP [27] read?
A: The logP was 3.6.

Q: Which logP [28] does the source give for `CC(C(c1ccccc1)c1ccccc1)[N+](=O)[O-]` (stereo not given) here?
A: The logP was 3.91.

Q: With `COc1ccc(-c2coc3cc(O)ccc3c2=O)cc1` as the molecule, how does the logP [29] read?
A: The logP was 3.32.

Q: Which logP [30] does the source give for `Oc1ccc2ccccc2c1/N=N/c1ccccc1` here?
A: The logP was 5.86.

Q: With `CN(C)c1ccc(-c2nc3ccc(I)cc3o2)cc1` as the molecule, how does the logD [31] read?
A: The logD was 2.09.

Q: For `CC(C)NCC(O)c1ccc2ccccc2c1` (stereo not given), which logP [32] is on record?
A: The logP was 3.

Q: Which logP [33] does the source give for `O=C(/C=C/c1ccc(O)cc1)c1ccc(O)cc1O` here?
A: The logP was 1.91.

Q: For `Cc1cc(-n2[nH]c3c(cnc4ccccc43)c2=O)cs1`, which logD [34] is on record?
A: Its logD is 1.58.

Q: Which logD [35] does the source give for `CCCC(=O)NCCC(=O)NCc1c(O)c(=O)cc(C)n1C` here?
A: The logD was -0.7.

Q: With `CC(C)(c1ccc(O)cc1)c1ccc(O)cc1` as the molecule, how does the logP [36] read?
A: Its logP is 3.41.

Q: For `CNc1ccc(/C=C/c2ccc(O)cc2)cc1`, which logD [37] is on record?
A: Its logD is 2.36.

Q: With `O=C1CCC[C@@H]2[C@H]3CCC[N@+]4([O-])CCC[C@@H](CN12)[C@@H]34` as the molecule, how does the logD [38] read?
A: The logD was -0.86.

Q: For `COc1ccc(COc2ccccc2C(N)=O)cc1`, which logP [39] is on record?
A: The logP was 1.63.

Q: Which logD [40] does the source give for `CC(C)OC(=O)C(NC(=O)c1cccnc1)n1cc(F)c(=O)[nH]c1=O` (stereo not given) here?
A: The logD was 0.62.

Q: Which logD [41] does the source give for `C=CCOc1ccccc1OCC(O)CNC(C)C` (stereo not given) here?
A: The logD was 2.25.

Q: For `CCOC(=O)c1cncn1C(C)c1ccc(C2(C(F)(F)F)N=N2)cc1` (stereo not given), which logD [42] is on record?
A: Its logD is 4.4.

Q: With `CC(C(N)=O)c1ccc(-c2ccccc2)c(F)c1` (stereo not given) as the molecule, how does the logD [43] read?
A: Its logD is 3.2.

Q: With `O=[N+]([O-])c1cc(Cl)c(/N=N/c2ccc(N(CCO)CCO)cc2Cl)c(Cl)c1` as the molecule, how does the logP [44] read?
A: The logP was 3.9.
